Literature values in patent US20100166887A1, “DIBENZO[b,e][1,4]DIAZEPINE MODULATORS OF DOPAMINE RECEPTORS, SEROTONIN RECEPTORS, ADRENERGIC RECEPTORS, ACETYLCHOLINE RECEPTORS, AND/OR HISTAMINE RECEPTORS” (Auspex Pharmaceuticals, Inc., priority 2008, published 2010).

Molecular target: human ether-a-gogo related gene (hERG) potassium channel (Homo sapiens, UniProt Q12809)
Conditions: Pearlstein et al., J. Med. Chem., 2003

Sequence of human ether-a-gogo related gene (hERG) potassium channel (Q12809 whole entry): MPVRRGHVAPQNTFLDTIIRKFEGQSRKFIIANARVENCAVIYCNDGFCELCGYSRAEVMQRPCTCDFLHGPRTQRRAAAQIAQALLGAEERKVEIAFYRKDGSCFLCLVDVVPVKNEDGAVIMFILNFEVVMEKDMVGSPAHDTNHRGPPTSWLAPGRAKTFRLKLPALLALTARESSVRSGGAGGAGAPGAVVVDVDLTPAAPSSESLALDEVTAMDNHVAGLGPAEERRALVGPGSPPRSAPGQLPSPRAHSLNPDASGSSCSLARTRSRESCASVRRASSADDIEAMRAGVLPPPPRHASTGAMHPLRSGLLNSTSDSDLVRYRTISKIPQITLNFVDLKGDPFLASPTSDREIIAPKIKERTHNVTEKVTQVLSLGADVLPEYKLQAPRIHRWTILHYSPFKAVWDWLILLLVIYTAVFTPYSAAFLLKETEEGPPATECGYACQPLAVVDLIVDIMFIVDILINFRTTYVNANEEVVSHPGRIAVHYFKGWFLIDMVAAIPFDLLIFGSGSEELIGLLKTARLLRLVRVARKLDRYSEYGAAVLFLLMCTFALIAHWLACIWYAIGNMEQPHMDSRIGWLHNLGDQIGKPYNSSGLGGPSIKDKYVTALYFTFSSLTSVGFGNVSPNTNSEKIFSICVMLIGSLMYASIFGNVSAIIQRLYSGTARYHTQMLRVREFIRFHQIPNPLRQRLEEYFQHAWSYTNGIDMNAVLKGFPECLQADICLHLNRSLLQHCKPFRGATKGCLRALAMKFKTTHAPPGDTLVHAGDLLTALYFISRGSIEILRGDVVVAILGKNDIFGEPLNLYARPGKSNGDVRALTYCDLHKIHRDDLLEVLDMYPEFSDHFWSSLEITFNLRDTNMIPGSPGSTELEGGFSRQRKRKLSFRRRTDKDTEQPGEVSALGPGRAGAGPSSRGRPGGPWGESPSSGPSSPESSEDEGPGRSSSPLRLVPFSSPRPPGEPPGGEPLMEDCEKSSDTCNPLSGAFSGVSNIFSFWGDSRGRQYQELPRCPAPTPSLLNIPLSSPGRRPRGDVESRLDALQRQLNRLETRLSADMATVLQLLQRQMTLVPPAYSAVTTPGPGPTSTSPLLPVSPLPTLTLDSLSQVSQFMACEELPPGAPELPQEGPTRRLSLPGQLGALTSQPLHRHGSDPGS

Compound: Clc1ccc2c(c1)N=C(N1CCNCC1)c1ccccc1N2 [N-desmethyl clozapine, 8-Chloro-11-(4-piperazino)-5H-dibenzo[b,e][1,4]diazepine]
- inhibition of the hERG potassium channel: inhibits
